This note sets out measurements from paper PMC6563099, “Novel Thienopyrimidine Derivative, RP-010, Induces β-Catenin Fragmentation and Is Efficacious against Prostate Cancer Cells” (Cancers, 2019).

Common to all, as to type: cell-based
One experiment concerns PC-3. The experiment in a line: MTT cytotoxicity assay, PC-3 prostate cancer cells. To be noted: Homo sapiens, PC-3, MTT assay; means ± SDs of three independent experiments; read-out: IC50 ± SD, Prostate Cancer Cells, PC-3. The protocol:
(§1) All the cells were cultured as adherent monolayers in culture flasks, and were used to determine the anti-cancer efficacy of RP-010. DMEM supplemented with 4.5 g of glucose, 10% fetal bovine serum (FBS) and 1% penicillin/streptomycin, was used to augment cell growth. Finally, the cells were incubated and grown in a humidified incubator containing 5% CO2 at 37 °C [50]. […] Cells were obtained from frozen stocks and cell passaging (up to P4) was performed at 80% cell confluency, using PBS and trypsin + 2.2-mM EDTA.
(§2) MTT assays were used to determine the cytotoxicity of the RP compounds, to PC cell lines, as previously described.

The subject of a further experiment is DU145. The experiment in a line: MTT cytotoxicity assay, DU145 prostate cancer cells. Particulars: Homo sapiens, DU-145, MTT assay; means ± SDs of three independent experiments; read-out: IC50 ± SD, Prostate Cancer Cells, DU145. The protocol:
as §1, §2
In general terms: Tetrazolium dyes change colour on reduction, which living cells bring about.

Another experiment concerns CRL-1459. The experiment in a line: MTT cytotoxicity assay, CRL-1459 normal colon epithelial cells. Particulars: Homo sapiens, normal colon epithelial cell line, means ± SDs of three independent experiments, read-out: IC50 ± SD, Non-Prostate Cells, CRL-1459. The protocol:
as §1, §2

The next experiment deals with CHO. The experiment in a line: MTT cytotoxicity assay, CHO cells. Particulars: Cricetulus griseus, Chinese hamster ovarian cell line, means ± SDs of three independent experiments, read-out: IC50 ± SD, Non-Prostate Cells, CHO. The protocol:
as §1, §2

Where only a bound is given, the exact number is not on record here.

As a reminder, the IC50 is the concentration that inhibits the measured activity by half. Take `COc1ccc(-c2nc3sc4c(c3c(=O)[nH]2)CCCC4)cc1OC` [RP11]: the IC50 in the experiment on PC-3 is 6.6 ± 0.7 µM; with DU145, 2.7 ± 0.5 µM; in the experiment on CRL-1459, over 100 µM; with CHO it was over 100 µM.

`Cc1ccc(-c2nc3sc4c(c3c(=O)[nH]2)CCCC4)cc1` [RP7]: the half-inhibitory concentration (IC50) in the experiment with PC-3, with DU145, with CRL-1459 and with CHO was over 100 µM each time.

Take `COc1cccc(-c2nc3sc4c(c3c(=O)[nH]2)CCCC4)c1O` [RP13]: the half-inhibitory concentration (IC50) with PC-3, in the experiment on DU145, in the experiment on CRL-1459 and in the experiment on CHO was over 100 µM throughout.

With `O=c1[nH]c(-c2ccccc2)nc2sc3c(c12)CCCC3` [RP1], the concentration for half-maximal inhibition (IC50) with PC-3, with DU145, in the experiment with CRL-1459 and in the experiment with CHO was over 100 µM in each case.

For `COc1cccc(-c2nc3sc4c(c3c(=O)[nH]2)CCCC4)c1` [RP9], the IC50 is 2.8 ± 1.1 µM in the experiment with PC-3, over 100 µM in the experiment with DU145, over 100 µM in the experiment with CRL-1459 and over 100 µM with CHO.

Take `O=c1[nH]c(-c2ccc([N+](=O)[O-])cc2)nc2sc3c(c12)CCCC3` [RP6]: the IC50 with PC-3, with DU145, in the experiment on CRL-1459 and in the experiment with CHO was over 100 µM in each case.

Consider `O=c1[nH]c(-c2cccc([N+](=O)[O-])c2)nc2sc3c(c12)CCCC3` [RP5], for which the half-maximal inhibitory concentration (IC50) in the experiment with PC-3, in the experiment on DU145, in the experiment on CRL-1459 and with CHO was over 100 µM throughout.

Take `O=c1[nH]c(-c2ccc(Cl)cc2)nc2sc3c(c12)CCCC3` [RP3]: the IC50 with PC-3, with DU145, with CRL-1459 and in the experiment on CHO was over 100 µM throughout.

Turning to `N#Cc1ccc(-c2nc3sc4c(c3c(=O)[nH]2)CCCC4)cc1` [RP8], the IC50 in the experiment with PC-3 was 6.4 ± 0.5 µM; in the experiment with DU145 it was over 100 µM; with CRL-1459 it was over 100 µM; in the experiment on CHO, over 100 µM.

For `COc1cc(OC)cc(-c2nc3sc4c(c3c(=O)[nH]2)CCCC4)c1` [RP12], the IC50 in the experiment with PC-3 was 6.9 ± 1 µM; with DU145 it was over 100 µM; in the experiment on CRL-1459 it was over 100 µM; in the experiment on CHO it was over 100 µM.

As to `O=c1[nH]c(-c2ccc(Cl)cc2Cl)nc2sc3c(c12)CCCC3` [RP4], the IC50 in the experiment on PC-3 is 73.4 ± 3.1 µM; with DU145, over 100 µM; with CRL-1459 it was over 100 µM; with CHO, over 100 µM.

As for `O=c1[nH]c(-c2ccc(F)cc2)nc2sc3c(c12)CCCC3` [RP2], the IC50 in the experiment with PC-3, with DU145, in the experiment on CRL-1459 and with CHO was over 100 µM throughout.
